Assay results published in patent US20260317314A1, “NITROGEN-CONTAINING HETEROCYCLIC COMPOUND AND USE THEREOF” (JIANGSU DEYUAN PHARMACEUTICAL CO.,LTD., priority 2023, published 2026).

What was measured:
[1] = Plasma protein binding rate test, SD rat (equilibrium dialysis); format: in vitro ADME; conditions: 37° C., read-out: Plasma protein binding rate (%) in SD rats (converted)
Text: (§1) The sample was thoroughly mixed.

[2] = In vitro liver microsome metabolic stability study; format: in vitro ADME; conditions: human liver microsomes 0.5 mg/mL, compound 1 μM, 37° C., up to 60 minutes; read-out: Intrinsic hepatic clearance CLint(liver)
Experimental: Stock solution: 10 mM in DMSO.
Only 54 μL of microsomal working solution, 6 μL of NADPH regeneration system working solution, and 180 μL of stop solution were added to the blank plate.
LC-MS/MS analysis was performed.

[3] = Plasma protein binding rate test, cynomolgus monkey (equilibrium dialysis); format: in vitro ADME; conditions: 37° C., read-out: Plasma protein binding rate (%) in cynomolgus monkeys (converted)
Text: as §1

[4] = In vivo pharmacokinetic study in cynomolgus monkeys; parameters: species or system cynomolgus monkey; conditions: male cynomolgus monkeys
[5] = In vivo pharmacokinetics study in rats; parameters: species or system SD rat; conditions: male SD rats, oral 2 mg/kg; for AUC(0-t) at 24 h: read-out: AUC0-24 h
[6] = Plasma protein binding rate test, human (equilibrium dialysis); format: in vitro ADME; conditions: 37° C.
Text: as §1

[7] = Permeability test in MDR1-MDCKII monolayer cell model; format: in vitro ADME; conditions: dog; for efflux ratio at 2.5 h, 2 µM: MDCK-MDR1, pH 7.4, ER=Papp(BA)/Papp(AB); for Papp A→B at 2.5 h, 2 µM: MDCK-MDR1, pH 7.4, pH 7.40, 2.5 hours, 37±1° C., read-out: Apparent permeability coefficient (Papp (AB))
Experimental: Experimental objective: The permeability and efflux ratio of the compound of the present disclosure were determined using the MDR1-MDCKII monolayer cell model to assess its membrane permeability and potential for P-gp-mediated efflux transport.
Experimental protocol: MDR1-MDCKII cells (obtained from the Netherlands Cancer Institute) were seeded in 96-well plates (obtained from Corning) at a cell density of 3.33×10^5 cells/mL and cultured for 4 to 7 days to form confluent cell monolayers. Hank's balanced salt solution containing 10 mM HEPES (pH 7.40) was used as the transport buffer. The test compound was evaluated for bidirectional transport at a concentration of 2 μM, with the DMSO concentration in the incubation system maintained below 1%. After adding the samples, the cell plate was incubated at 37±1° C., 5% CO2, and saturated humidity for 2.5 hours. All samples were quantitatively analyzed using the LC-MS/MS method. The apparent permeability coefficient (Papp, cm/s) and efflux ratio (ER) were calculated using the following formula. Apparent permeability coefficient (Papp, cm/s) was calculated using the following formula: Papp=(dCr/dt)×Vr/(A×C0). Herein, dCr/dt represents the cumulative concentration of the compound at the receiving end per unit time (μM/s); Vr is the volume of the solution at the receiving end (with solution volumes at the apical and basolateral ends being 0.075 mL and 0.250 mL, respectively); A is the relative surface area of the cell monolayer (0.143 cm^2); C0 is the initial concentration of the test substance at the dosing end (μM) or the peak area ratio of the reference substance. The efflux ratio was calculated using the following formula: ER=Papp(BA)/Papp(AB).

[8] = test system: plasma protein; test: Plasma protein binding rate test, cynomolgus monkey (equilibrium dialysis); format: in vitro ADME; conditions: 37° C., 4 hours
Text: as §1

[9] = test system: plasma protein; test: Plasma protein binding rate test, human (equilibrium dialysis); format: in vitro ADME; conditions: 37° C., 4 hours
Text: as §1

[10] = target: T1, human CYP11B2 (Homo sapiens, UniProt P19099); test: In vitro activity assay of monoclonal cells overexpressing human CYP11B2; format: cell-based; conditions: G402 cells overexpressing human CYP11B2; substrate 11-deoxycorticosterone; 16 hours; aldosterone by LCMS/MS
T1 construct: expressed in transfected cells; host or cells: human renal leiomyoma G402 cell line (monoclonal cells overexpressing human CYP11B2)
T1 sequence (P19099 25-503): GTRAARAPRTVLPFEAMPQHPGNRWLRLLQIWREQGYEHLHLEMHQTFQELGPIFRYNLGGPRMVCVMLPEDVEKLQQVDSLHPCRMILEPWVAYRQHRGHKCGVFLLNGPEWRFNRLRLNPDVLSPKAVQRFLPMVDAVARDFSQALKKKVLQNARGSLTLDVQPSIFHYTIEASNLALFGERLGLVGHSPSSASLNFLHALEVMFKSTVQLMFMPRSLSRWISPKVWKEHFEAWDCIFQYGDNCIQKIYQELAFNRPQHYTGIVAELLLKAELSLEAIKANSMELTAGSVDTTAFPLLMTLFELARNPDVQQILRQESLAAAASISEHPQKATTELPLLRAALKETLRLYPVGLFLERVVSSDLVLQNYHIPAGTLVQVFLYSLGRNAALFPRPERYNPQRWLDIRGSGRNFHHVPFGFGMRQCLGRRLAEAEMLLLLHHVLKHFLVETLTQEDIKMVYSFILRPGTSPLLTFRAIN
Experimental: The human renal leiomyoma G402 cell line overexpressing human CYP11B2 was selected to serve as a compound activity screening system.
• 2) Compound details: The test compound was prepared as a 10 μM working concentration using DMSO.
Day 1: Cells were digested, and human renal leiomyoma G402 cells overexpressing human CYP11B2 were resuspended to 1×10^5 cells/mL, with 100 μL seeded into a 96-well plate.
Day 2: The medium was replaced with DMEM/F12 containing 2.5% charcoal-stripped fetal bovine serum; test compounds were added: 5 μL of test compound was added to the cell culture medium to achieve final concentrations of 10000, 2500, 625, 156.25, 39.06, 9.77, 2.44, 0.61, 0.15, and 0 nM (with a DMSO content of 0.1%).
After one hour, the substrate was added: 30 mM 11-deoxycorticosterone was diluted 1500-fold with culture medium, and 5 μL was dispensed per well to achieve a final concentration of […], followed by incubation for 16 hours.
Day 3: The cell supernatant was collected and added to 200 μL of a methanol solution containing internal standards (internal standards: 35 ng/mL ketoprofen or 7.5 ng/mL carbamazepine or 5 ng/mL diphenhydramine or 10 ng/mL tolbutamide). The mixture was vortexed and centrifuged (4000×g, 4° C., 5 minutes). Then, 100 μL of the supernatant was taken and mixed with 100 μL of pure water. The mixture was centrifuged (4000 g, 4° C., 15 min), and the supernatant was analyzed by ESI-LCMS/MS. • 4) Data analysis:
Ratio=Aldosterone peak area/Internal standard peak area
Control activity %=(Ratio test compound/Ratio DMSO)×100%
“Ratio test compound” represents the Ratio values at different concentrations of the test compound.
“Ratio DMSO” represents the Ratio value without the addition of the test compound. • X=Log (compound concentration) • Y=Control activity %
The IC50 of the test compound was determined by fitting to a nonlinear regression equation using XLfit 5.5.0.

[11] = test system: patients with refractory hypertension; conditions: cited from earlier work
[12] = cynomolgus monkey, plasma, oral 3 mg/kg
[13] = 2 mg dose, patients with refractory hypertension

CCC(=O)N[C@@H]1CCCc2c(-c3ccc4c(ccc(=O)n4C)c3)cncc21 (single isomer, unassigned) [Compound 001]
fraction unbound at 4 h [1]: 0.079
CLint scaled at 1 µM [2]: < 8.6 mL/min/kg
fraction unbound at 4 h [3]: 0.254
bioavailability [4, 12]: 120%
half-life [4, 12]: 4.99 h
Cmax ([4]; cynomolgus monkey, oral 3 mg/kg, plasma): 4 µM
AUC(0-t) at 24 h ([4]; cynomolgus monkey, oral 3 mg/kg, plasma, read-out: AUC0-24 h): 23.2 µM·h
bioavailability ([5]; rat, plasma): 80%
half-life ([5]; rat, plasma): 4.61 h
Cmax ([5]; rat, plasma): 7.63 µM
AUC(0-t) at 24 h ([5]; rat, plasma): 59.1 µM·h
fraction unbound at 4 h [6]: 0.239
efflux ratio at 2.5 h, 2 µM [7]: 1.76
Papp A→B at 2.5 h, 2 µM [7]: 17.2 ×10⁻⁶ cm/s

CCC(=NOC)NC1CCCc2c(-c3ccc4c(c3)CCC(=O)N4C)cncc21 (single isomer, unassigned) [Compound 005]
fraction unbound at 4 h [1]: 0.102
fraction unbound at 4 h [3]: 0.127
bioavailability ([5]; rat, plasma): 111%
half-life ([5]; rat, plasma): 2.77 h
Cmax ([5]; rat, plasma): 1.31 µM
AUC(0-t) at 24 h ([5]; rat, plasma): 7.8 µM·h
fraction unbound at 4 h [6]: 0.106
efflux ratio at 2.5 h, 2 µM [7]: 0.7
Papp A→B at 2.5 h, 2 µM [7]: 23.1 ×10⁻⁶ cm/s

Cc1noc(C)c1C(=O)N[C@@H]1CCCc2c(-c3cc4ccc(=O)n(C)c4cc3F)cncc21 (single isomer, unassigned) [Compound 020]
Plasma protein binding rate (%) in cynomolgus monkeys [8]: 90.3%
Human plasma protein binding rate (%) [9]: 85.6%

CCC(=O)NC1CCCc2c(-c3cc4ccc(=O)n(C)c4s3)cncc21 (single isomer, unassigned) [Compound 023]
Plasma protein binding rate (%) in cynomolgus monkeys [8]: 69.0%
F ([4]; oral 1 mg/kg): 76.5%
T1/2 ([4]; oral 1 mg/kg): 4.80 h
AUC0-24 h ([4]; oral 1 mg/kg, plasma): 8.916 µM·h
Cmax ([4]; oral 1 mg/kg, plasma): 1.32 µM
F [5]: 109%
T1/2 [5]: 3.6 h
AUC0-24 h ([5]; plasma): 44.234 µM·h
Cmax ([5]; plasma): 6.92 µM
Human plasma protein binding rate (%) [9]: 69.6%

CCC(=O)N[C@@H]1CCCc2c(-c3ccc4c(c3)c(C)cc(=O)n4C)cncc21 (single isomer, unassigned) [Compound 027]
IC50 [10]: 62.7 nM

CCC(=O)NC1CCCc2c(-c3cc(F)c4c(c3)OCC(=O)N4C)cncc21 (single isomer, unassigned) [Compound 031]
CLint scaled at 1 µM [2]: < 8.6 mL/min/kg
fraction unbound at 4 h [3]: 0.203
fraction unbound at 4 h [6]: 0.193
efflux ratio at 2.5 h, 2 µM [7]: 0.89
Papp A→B at 2.5 h, 2 µM [7]: 20 ×10⁻⁶ cm/s

CCC(=O)NC1CCCc2c(-c3cc4c(cc3F)N(C)C(=O)CO4)cncc21 (single isomer, unassigned) [Compound 032]
CLint scaled at 1 µM [2]: < 8.6 mL/min/kg
fraction unbound at 4 h [3]: 0.205
fraction unbound at 4 h [6]: 0.151
efflux ratio at 2.5 h, 2 µM [7]: 0.86
Papp A→B at 2.5 h, 2 µM [7]: 22.6 ×10⁻⁶ cm/s

CCC(=O)NC1CCOc2c(-c3cc4ccc(=O)n(C)c4s3)cncc21 (single isomer, unassigned) [Compound 045]
fraction unbound at 4 h [3]: 0.32
fraction unbound at 4 h [6]: 0.239
efflux ratio at 2.5 h, 2 µM [7]: 1.3
Papp A→B at 2.5 h, 2 µM [7]: 16.7 ×10⁻⁶ cm/s

CCC(=O)N[C@@H]1CCCc2c(-c3ccc4c(c3)CCC(=O)N4C)cncc21 [Baxdrostat]
office systolic and diastolic blood pressure [11, 13]: efficacy in reducing office systolic and diastolic blood pressure
safety and tolerability [11, 13]: favorable safety and tolerability profiles
aldosterone secretion levels ([11]; clinical studies): dose-dependent reduction
blood pressure ([11]; clinical studies): dose-dependent reduction
blood pressure reduction ([11]; phase 2 trials): significant blood pressure reduction
cortisol levels ([11]; phase 2 trials): no impact on cortisol levels
elevated blood potassium ([11]; phase 2 trials): rare occurrence of elevated blood potassium
steroid precursor accumulation ([11]; phase 2 trials): absence of steroid precursor accumulation
